Where two headings read alike, the source gives them in different places.
What was measured:
H 3211 NSLC cells = test: IC50 of continuous and pulsed exposure to SDC-TRAPs; assay type: cell-based
[1] = Tissue distribution of SDC-TRAPs in tumor-bearing mice (plasma, tumor, heart); conditions: mouse, in vivo; for Kp: tissue distribution of SDC-TRAP-0076, read-out: Tumor/Plasma Ratio
Description: Using the 10 mM stock solutions of the SDC-TRAP molecule and its Hsp90i binding moiety and effector moiety in DMSO, spiking solutions were prepared at 0.025, 0.05, 0.1, 0.5, 1, 5, 10, 50, 100, 250, and 500 μM in DMSO. 5 μL of each spiking solution was added to a 96-deep well plate.
Quality control standards were prepared from 5 μL of 0.1, 1, and 10 μM calibration standard spiking solution added in triplicate into 96-deep well plate and adding 50 μL of matrix (plasma or homogenized tumor).
To prepare test samples, test plasma was diluted as needed using blank plasma. Tumor samples were pulverized in liquid nitrogen, weighed, and homogenized in PBS at 5× volume to sample weight. 50 μL of unknown plasma or homogenized tumor sample was mixed with 5 μL of DMSO. The samples were extracted by precipitating calibration standards, QC standards, and unknown samples with 200 μL of internal standard solution. The samples were mixed by vortex at room temperature for approximately 1.5 minutes, then centrifuge at 2-8° C. 150 μL of supernatant was collected and 25 μL of water added. Samples were mixed and analyzed by LC-MS/MS.
Samples of plasma, heart and tumor were excised from a euthanized mouse, homogenized in PBS at 5 times tissue weight and diluted in 5 μL DMSO/50 μL sample. Prior to analysis, 55 μL samples and calibration standards were precipitated in 200 μL methanol in 96-well plates. Samples were mixed on a vortex mixer for 1.5 minutes at 1500 rpm at room temperature, then centrifuged at 4400 rpm for 10 minutes at 8° C. 150 μL of each supernatant was transferred to a well of a new 96-well plate, and 25 μL of water was added and mixed with the sample. […] For the analysis of samples from female SCID mice, a gradient of solvent A (water/0.1% formic acid) and B (acetonitrile/0.1% formic acid) was used as in Table A below.

[2] = Stability in mouse plasma; assay type: in vitro ADME; conditions: 1 h
[3] = 72 h, read-out: IC50, 72 h-continuous, H 3211 NSLC cells, 7.5 × 10^3 cells/well, 1st of 3 columns
[4] = 1 h, read-out: IC50, 1 h-pulse/71 h-compound free, H 3211 NSLC cells, 7.5 × 10^3 cells/well, 1st of 2 columns
[5] = 1 h, read-out: IC50, 1 h-pulse/71 h-compound free, H 3211 NSLC cells, 7.5 × 10^3 cells/well, 2nd of 2 columns
[6] = 72 h, read-out: IC50, 72 h-continuous, H 3211 NSLC cells, 7.5 × 10^3 cells/well, 2nd of 3 columns
[7] = 72 h, read-out: IC50, 72 h-continuous, H 3211 NSLC cells, 7.5 × 10^3 cells/well, 3rd of 3 columns

SMILES	IC50 (H 3211 NSLC cells; [3]) [µM]	IC50 (H 3211 NSLC cells; [4]) [µM]	IC50 (H 3211 NSLC cells; [5]) [µM]	IC50 (H 3211 NSLC cells; [6]) [µM]	IC50 (H 3211 NSLC cells; [7]) [µM]	other results
CNCCn1ccc2cc(-n3c(O)nnc3-c3cc(C(C)C)c(O)cc3O)ccc21 [SDC-TRAP-0004]	–	–	–	–	–	IC50 (H 3211 NSLC cells; read-out: IC50, 1 h-pulse/71 h-compound free, H 3211 NSLC cells, 7.5 × 10^3 cells/well, 1st of 2 columns): 0.624 µM; IC50 (H 3211 NSLC cells; read-out: IC50, 1 h-pulse/71 h-compound free, H 3211 NSLC cells, 7.5 × 10^3 cells/well, 2nd of 2 columns): 1.75 µM; IC50 (H 3211 NSLC cells; read-out: IC50, 72 h-continuous, H 3211 NSLC cells, 7.5 × 10^3 cells/well, 1st of 3 columns): 0.022 µM; IC50 (H 3211 NSLC cells; read-out: IC50, 72 h-continuous, H 3211 NSLC cells, 7.5 × 10^3 cells/well, 2nd of 3 columns): 0.06 µM; IC50 (H 3211 NSLC cells; read-out: IC50, 72 h-continuous, H 3211 NSLC cells, 7.5 × 10^3 cells/well, 3rd of 3 columns): 0.04 µM
CCc1c2c(nc3ccc(O)cc13)-c1cc3c(c(=O)n1C2)COC(=O)C3(CC)OC(=O)CCCNC(=O)c1cc2cc(-n3c(O)nnc3-c3cc(C(C)C)c(O)cc3O)ccc2n1C (stereo not shown) [SDC-TRAP-0024, 4,11-diethyl-9-hydroxy-3,14-dioxo-3,4,12,14-tetrahydro-1H-pyrano[3′,4′:6,7]indolizino[1,2-b]quinolin-4-yl 4-(5-(3-(2,4-dihydroxy-5-isopropylphenyl)-5-hydroxy-4H-1,2,4-triazol-4-yl)-1-methyl-1H-indole-2-carboxamido)butanoate]	0.076	–	–	–	–	–
CC(C)c1cc(-c2nnc(O)n2-c2ccc3c(ccn3CCOCCNC(=O)c3ccc(CCc4c[nH]c5nc(N)[nH]c(=O)c45)cc3)c2)c(O)cc1O [SDC-TRAP-0020, 4-(2-(2-amino-4-oxo-4,7-dihydro-3H-pyrrolo[2,3-d]pyrimidin-5-yl)ethyl)-N-(2-(2-(5-(3-(2,4-dihydroxy-5-isopropylphenyl)-5-hydroxy-4H-1,2,4-triazol-4-yl)-1H-indol-1-yl)ethoxy)ethyl)benzamide]	0.587	> 3	> 3	2.62	2.01	–
CC(C)c1cc(-c2nnc(O)n2-c2ccc3c(ccn3CCN(C)C(=O)c3ccc(CCc4c[nH]c5nc(N)[nH]c(=O)c45)cc3)c2)c(O)cc1O [SDC-TRAP-0019, 4-(2-(2-amino-4-oxo-4,7-dihydro-3H-pyrrolo[2,3-d]pyrimidin-5-yl)ethyl)-N-(2-(5-(3-(2,4-dihydroxy-5-isopropylphenyl)-5-hydroxy-4H-1,2,4-triazol-4-yl)-1H-indol-1-yl)ethyl)-N-methylbenzamide]	0.209	> 3	> 3	0.713	0.258	–
CCNC(=O)c1nnc(-c2cc(C(C)C)c(O)cc2O)n1-c1ccc(CN2CCC(C(=O)N3CCC(C(=O)OC4(CC)C(=O)OCc5c4cc4n(c5=O)Cc5c-4nc4ccc(O)cc4c5CC)CC3)CC2)cc1 (stereo not shown) [SDC-TRAP-0076, 4,11-diethyl-9-hydroxy-3,14-dioxo-3,4,12,14-tetrahydro-1H-pyrano[3′,4′:6,7]indolizino[1,2-b]quinolin-4-yl 1-(1-(4-(3-(2,4-dihydroxy-5-isopropylphenyl)-5-(ethylcarbamoyl)-4H-1,2,4-triazol-4-0)benzyl)piperidine-4-carbonyl)piperidine-4-carboxylate]	–	–	–	–	–	Kp ([1]; 1 h): 0.17; Kp ([1]; 6 h): 2.25; Kp ([1]; 24 h): 20.4; Kp ([1]; 48 h): 6.85; Kp ([1]; […]): 0.01; % Remaining ([2]; mouse plasma, 37° C.): 96%
CCc1c2c(nc3ccc(O)cc13)-c1cc3c(c(=O)n1C2)COC(=O)[C@]3(O)CC [SN-38]	–	–	–	–	–	Plasma Conc. ([1]; 1 h): 4.34 µM; Tumor/Plasma Ratio ([1]; 1 h): 0.11; concentration at 1 h ([1]; Plasma Conc.): 8.6 µM; Kp at 1 h ([1]; Tumor/Plasma Ratio): 0.07
CCc1c2c(nc3ccc(OCC(=O)N(C)CCOCCn4ccc5cc(-n6c(O)nnc6-c6cc(C(C)C)c(O)cc6O)ccc54)cc13)-c1cc3c(c(=O)n1C2)COC(=O)C3(O)CC (stereo not shown) [SDC-TRAP-0028, 2-((4,11-diethyl-4-hydroxy-3,14-dioxo-3,4,12,14-tetrahydro-1H-pyrano[3′,4′:6,7]indolizino[1,2-b]quinolin-9-yl)oxy)-N-(2-(2-(5-(3-(2,4-dihydroxy-5-isopropylphenyl)-5-hydroxy-4H-1,2,4-triazol-4-yl)-1H-indol-1-yl)ethoxy)ethyl)-N-methylacetamide]	0.468	> 3	> 3	1.76	0.499	% Remaining ([2]; mouse, plasma, 10 μM): 41%
CCc1c2c(nc3ccc(OCC(=O)N(C)CCn4ccc5cc(-n6c(O)nnc6-c6cc(C(C)C)c(O)cc6O)ccc54)cc13)-c1cc3c(c(=O)n1C2)COC(=O)C3(O)CC (stereo not shown) [SDC-TRAP-0027, 2-((4,11-diethyl-4-hydroxy-3,14-dioxo-3,4,12,14-tetrahydro-1H-pyrano[3′,4′:6,7]indolizino[1,2-b]quinolin-9-yl)oxy)-N-(2-(5-(3-(2,4-dihydroxy-5-isopropylphenyl)-5-hydroxy-4H-1,2,4-triazol-4-yl)-1H-indol-1-yl)ethyl)-N-methylacetamide]	–	> 3	> 3	1.74	1.33	–
CC(C)c1cc(-c2nnc(O)n2-c2ccc3c(ccn3CCN(C)C(=O)CCCC(=O)Nc3cccc4c3CN(C3CCC(=O)NC3=O)C4=O)c2)c(O)cc1O (stereo not shown) [SDC-TRAP-0018, N1-(2-(5-(3-(2,4-dihydroxy-5-isopropylphenyl)-5-hydroxy-4H-1,2,4-triazol-4-yl)-1H-indol-1-yl)ethyl)-N5-(2-(2,6-dioxopiperidin-3-yl)-1-oxoisoindolin-4-yl)-N1-methylglutaramide]	0.287	> 3	> 3	0.839	0.735	–
CC(C)c1cc(-c2nnc(O)n2-c2ccc3c(ccn3CCOCCNC(=O)CCCC(=O)Nc3cccc4c3CN(C3CCC(=O)NC3=O)C4=O)c2)c(O)cc1O (stereo not shown) [SDC-TRAP-0015, N1-(2-(2-(5-(3-(2,4-dihydroxy-5-isopropylphenyl)-5-hydroxy-4H-1,2,4-triazol-4-yl)-1H-indol-1-yl)ethoxy)ethyl)-N5-(2-(2,6-dioxopiperidin-3-yl)-1-oxoisoindolin-4-yl)glutaramide]	–	> 3	> 3	2.23	–	–
CCc1c2c(nc3ccc(OCC(=O)NCCn4ccc5cc(-n6c(O)nnc6-c6cc(C(C)C)c(O)cc6O)ccc54)cc13)-c1cc3c(c(=O)n1C2)COC(=O)C3(O)CC (stereo not shown) [SDC-TRAP-0023, 2-((4,11-diethyl-4-hydroxy-3,14-dioxo-3,4,12,14-tetrahydro-1H-pyrano[3′,4′: 6,7]indolizino[1,2-b]quinolin-9-yl)oxy)-N-(2-(5-(3-(2,4-dihydroxy-5-isopropylphenyl)-5-hydroxy-4H-1,2,4-triazol-4-yl)-1H-indol-1-yl)ethyl)acetamide]	0.059	> 3	> 3	0.239	0.113	–
CCc1c2c(nc3ccc(OC(=O)N(C)CCn4ccc5cc(-n6c(O)nnc6-c6cc(C(C)C)c(O)cc6O)ccc54)cc13)-c1cc3c(c(=O)n1C2)COC(=O)C3(O)CC (stereo not shown) [SDC-TRAP-0022, 4,11-diethyl-4-hydroxy-3,14-dioxo-3,4,12,14-tetrahydro-1H-pyrano[3′,4′:6,7]indolizino[1,2-b]quinolin-9-yl (2-(5-(3-(2,4-dihydroxy-5-isopropylphenyl)-5-hydroxy-4H-1,2,4-triazol-4-yl)-1H-indol-1-yl)ethyl)(methyl)carbamate]	–	–	–	–	–	% Remaining ([2]; mouse plasma, 37° C.): 21%
CCNC(=O)c1nnc(-c2cc(C(C)C)c(O)cc2O)n1-c1ccc(OC2CCN(C(=O)CN(C)C(=O)Oc3ccc4nc5c(c(CC)c4c3)Cn3c-5cc4c(c3=O)COC(=O)[C@]4(O)CC)CC2)cc1 [SDC-TRAP-0206, (S)-4,11-diethyl-4-hydroxy-3,14-dioxo-3,4,12,14-tetrahydro-1H-pyrano[3′,4′:6,7]indolizino[1,2-b]quinolin-9-yl(2-(4-(4-(3-(2,4-dihydroxy-5-isopropylphenyl)-5-(ethylcarbamoyl)-4H-1,2,4-triazol-4-yl)phenoxy)piperidin-1-yl)-2-oxoethyl)(methyl)carbamate]	–	–	–	–	–	% Remaining ([2]; mouse plasma, 37° C.): 68.6%
CCNC(=O)c1nnc(-c2cc(C(C)C)c(O)cc2O)n1-c1ccc(CN2CCC(C(=O)N3CCC(COC(=O)Nc4cccc5c4CN(C4CCC(=O)NC4=O)C5=O)CC3)CC2)cc1 (stereo not shown) [SDC-TRAP-0124, (1-(1-(4-(3-(2,4-Dihydroxy-5-isopropylphenyl)-5-(ethylcarbamoyl)-4H-1,2,4-triazol-4-yl)benzyl)piperidine-4-carbonyl)piperidin-4-yl)methyl (2-(2,6-dioxopiperidin-3-yl)-1-oxoisoindolin-4-yl)carbamate]	–	–	–	–	–	% Remaining ([2]; mouse, plasma, 10 μM): 112%
CCNC(=O)c1nnc(-c2cc(C(C)C)c(O)cc2O)n1-c1ccc(OC2CCN(C(=O)[C@@H]3CCCN3C(=O)Oc3ccc4nc5c(c(CC)c4c3)Cn3c-5cc4c(c3=O)COC(=O)[C@]4(O)CC)CC2)cc1 [SDC-TRAP-0209]	–	–	–	–	–	% Remaining ([2]; mouse plasma, 37° C.): 67.1%
CC(C)c1cc(-c2nnc(O)n2-c2ccc3c(ccn3CCN(C)C(=O)NCC(=O)Nc3cccc4c3CN(C3CCC(=O)NC3=O)C4=O)c2)c(O)cc1O (stereo not shown) [SDC-TRAP-0021, 2-(3-(2-(5-(3-(2,4-dihydroxy-5-isopropylphenyl)-5-hydroxy-4H-1,2,4-triazol-4-yl)-1H-indol-1-yl)ethyl)-3-methylureido)-N-(2-(2,6-dioxopiperidin-3-yl)-1-oxoisoindolin-4-yl)acetamide]	0.431	> 3	> 3	0.817	0.902	–

Source: patent US10675360B2 (MADRIGAL PHARMACEUTICALS, INC., priority 2014, dated 2020)
